Measured values taken from patent publication US20250221930A1, “A COMPOSITION COMPRISING LIPID NANOPARTICLES AND AN ANTIFUNGAL POLYENE” (INSTITUT NATIONAL DE LA SANTÉ ET DE LA RECHERCHE MÉDICALE, priority 2022, published 2025).
≈ marks a conversion by molar mass, not a printed value. Where two headings read alike, the source gives them in different places.

Legend:
[1] = test system: human erythrocytes
Protocol: Human blood samples from different healthy volunteers was collected in EDTA tubes and centrifuged at 3000×g for 5 minutes. Plasma was removed and the erythrocytes were washed four times with 2 ml of 0.9% NaCl by centrifugation at 3000×g for 5 minutes.
Erythrocytes were suspended in PBS pH 7.4 and their concentration was adjusted to 5·10^8 cells/mL. Erythrocytes were then incubated with AmB solubilised as a solution or loaded in LNP for 1 hour at 37° C. under shaking, then centrifuged at 3000×g for 5 minutes. Then, 100 μL of the supernatant were transferred in a flat-bottomed transparent 96-well plate and the absorbance was measured at 540 nm. Untreated erythrocytes dispersed in PBS were used as a negative control, and erythrocytes treated by 1% (v/v) of TritonX-100 were used as a positive control. Percentage of hemolysis was calculated using the following equation: 100*(Asample−Acontrol)/(aTritonX−100−Anegative), where Asample is the absorbance measured for each experimental conditions, Anegative and aTritonX-100 are the absorbance of negative and positive controls, respectively.
Sterile Dulbelcc”s phosphate buffered saline (DDPBS, Dominique Dutscher, Bernolsheim, France) pH 7 was also used as a medium to measure the hemolytic activity of AmB.

[2] = test system: Cryptococcus neoformans; assay: EUCAST MICs of AmB alone and AmB formulated in LNPs; type: cell-based
Protocol: This medium was sterilized using a 0.22 μm pore-size filter.
AmB powder (Sigma-Aldrich) was dissolved in dimethyl sulfoxide to obtain a stock solution at 1000 mg/L, stored at −80° C. for six months.
On the day of use, AmB and freshly made AmB-loaded LNPs were diluted in RPMI medium to obtain the desired concentrations. The AmB-loaded LNPs were prepared as detailed in Example 5.
MICs of AmB alone and AmB formulated in LNPs were evaluated according to the European Committee on Antimicrobial Susceptibility Testing (EUCAST) guidelines. Briefly, MICs were determined by adding 100 μL of two-fold dilutions of AmB (0.008 to 4 mg/L) and LNPs-AmB (0.04 to 1024 mg/L) in 96-well plates. One hundred microliters of a fungal suspension at a final concentration of 10^5 CFU/mL was added to the wells, and the plates were incubated for 48 h at 30° C. MICs, defined as the lowest concentration of AmB inhibiting 90% of the growth of the fungal strain, were read after […] of incubation by measuring absorbance at 530 nm with an Infinite M200 Pro microplate reader (Tecan®, France). Three experiments were performed for each strain.

[3] = test system: Rhizopus arrhizus; assay: Checkerboard AmB MIC with surfactant in solution, inhibitory Emax model; type: cell-based
Protocol: Twelve clinical isolates of Mucorales identified by ARNr sequencing were used: Rhizopus arrhizus (5), Rhizopus microsporus (1), Lichtheimia corymbifera (3), Lichtheimia ramosa (1), Mucor circinelloides (1), Rhizomucor pusillus (1). Isolates were subcultured from frozen stocks (−80° C.) on 75 cm^3 flasks containing 15 mL of Sabouraud dextrose agar (Sigma-Aldrich, St. Quentin Fallavier, France) during 3 days at 37° C. Spores were collected by flooding the flask with 10 ml of sterile water. The suspensions were filtered on nylon filter (Millipore, Carrigtwohill, Ireland) with pore size of 11 μm to remove hyphal elements. The concentration of the spore suspensions was then adjusted in sterile water to obtain inocula of 2×10^5 spores/mL.
AmB powder (Sigma-Aldrich) was dissolved in dimethyl sulfoxide to get a stock solution at 8192 mg/L stored at −80° C. for six months. On the day of use, AmB and freshly made surfactant solutions (in RPMI or PBS) were diluted in the same medium (RPMI or PBS) to obtain desired concentrations. Surfactants used (polyethylene glycol (15)-hydroxystearate (also named Solutol® HS15 or Kolliphor® HS 15, or Macrogol 15 Hydroxystearate); polyoxyethylene (10) stearyl ether (Brij® S10); polyoxyethylene (20) stearyl ether (Brij® S20); polyoxyethylene (20) oleyl ether (Brij® 020); and polyoxyethylene (10) cetyl ether (Brij® C10)), which have their chemical structure presented in FIG. 7, were purchased from Sigma-Aldrich.
AmB minimum inhibitory concentrations (MIC) of each strain of Mucorales was measured in RPMI the presence of different concentrations of surfactant as described by the EUCAST broth microdilution antifungal susceptibility test methodology with modification for the checkerboard procedure. Checkerboards were performed by adding 100 μL of two-fold dilutions of AmB (0.008 to 4 mg/L) and surfactant solutions (0.04 to 2752 mg/L) in 96 well plates. One hundred microliters of a spore suspension at a concentration of 105 spores/mL were added to the wells, and the plates were incubated for 24 h at 37° C. […] Three experiments were performed for each strain.
An inhibitory Emax model (Equation 1) developed by Chauzy et al. (Chauzy, A.; Buyck, J.; de Jonge, B. L. M.; Marchand, S.; Grégoire, N.; Couet, W. Pharmacodynamic Modelling of β-Lactam/β-Lactamase Inhibitor Checkerboard Data: Illustration with Aztreonam-Avibactam. Clin. Microbiol. Infect. 2019, 25, 515.e1-515.e4, doi: 10.1016/j.cmi.2018.11.025) to evaluate the enhancing effect of non-antibiotics molecules on the efficacy of antibiotic against bacteria was used here to describe the average decrease in AmB MIC values (MICsurf) against various Mucorales strains in relation to surfactant concentrations (Csurf).
In equation 1, MIC0 refers to the AmB MIC measured without surfactants and MIC∞ is the lowest AmB MIC measured in the presence of surfactant. The maximal ratio in AmB MIC decrease defined as maximal efficacy (Emax) was calculated as the ratio of MIC0/MIC∞. EC50 is the concentration of surfactant producing 50% of the Emax and characterizes the potency of the surfactants. These parameters were evaluated using WinNonlin software (version 6.2, Certara, NJ, USA) as described by Chauzy et al.

Structure (SMILES): C[C@@H]1[C@H](O)[C@@H](C)/C=C/C=C/C=C/C=C/C=C/C=C/C=C/[C@H](O[C@@H]2O[C@H](C)[C@@H](O)[C@H](N)[C@@H]2O)C[C@@H]2O[C@](O)(C[C@@H](O)C[C@@H](O)[C@H](O)CC[C@@H](O)C[C@@H](O)CC(=O)O[C@H]1C)C[C@H](O)[C@H]2C(=O)O [AmB, amphotericin B]
- hemolysis ([1]; in PBS, 5 to 15 mg/L of AmB): induce hemolysis
- hemolysis ([1]; in RPMI, AmB 15, 30 mg/L): induce hemolysis
- effect on growth of the cryptococci at concentrations below the MIC [2]: had no effect on the growth profile
- MIC ([2]; all the isolates (eight clinical strains)): 0.25 to 1 mg/L
- MIC ([2]; strain C1, 90% growth inhibition, absorbance at 530 nm): 0.5 mg/L (≈ 0.541 µM)
- MIC ([2]; strain C2, 90% growth inhibition, absorbance at 530 nm): 0.25 mg/L (≈ 0.271 µM)
- MIC ([2]; strain C3, 90% growth inhibition, absorbance at 530 nm): 0.5 mg/L (≈ 0.541 µM)
- MIC ([2]; strain C4, 90% growth inhibition, absorbance at 530 nm): 0.5 mg/L (≈ 0.541 µM)
- MIC ([2]; strain C5, 90% growth inhibition, absorbance at 530 nm): 1 mg/L (≈ 1.08 µM)
- MIC ([2]; strain C6, 90% growth inhibition, absorbance at 530 nm): 1 mg/L (≈ 1.08 µM)
- MIC ([2]; strain C7, 90% growth inhibition, absorbance at 530 nm): 1 mg/L (≈ 1.08 µM)
- MIC ([2]; strain C8, 90% growth inhibition, absorbance at 530 nm): 1 mg/L (≈ 1.08 µM)
- MIC0 (MIC of AmB in the absence of surfactant) ([3]; R. arrhizus 1): 0.28 mg/L
- MIC0 (MIC of AmB in the absence of surfactant) ([3]; R. arrhizus 2): 0.44 mg/L
- MIC0 (MIC of AmB in the absence of surfactant) ([3]; R. arrhizus 3): 0.59 mg/L
- MIC0 (MIC of AmB in the absence of surfactant) ([3]; R. arrhizus 4): 0.61 mg/L
- MIC0 (MIC of AmB in the absence of surfactant) ([3]; R. arrhizus 5): 0.35 mg/L
